Results published in paper PMC5482895, “Structural and biochemical studies of sulphotransferase 18 from Arabidopsis thaliana explain its substrate specificity and reaction mechanism” (Scientific Reports, 2017).
Values belong to the molecule of their own block, whether it stands above or below them.

How the values were obtained:
[1] = biological target: T1, AtSOT18 (Arabidopsis thaliana, UniProt Q9C9C9); experiment: X-ray crystal structure of ternary complex ([…] Å); type: binding
T1 construct: gene SOT18; residues 26–347 in the model
T1 sequence (Q9C9C9 26-347): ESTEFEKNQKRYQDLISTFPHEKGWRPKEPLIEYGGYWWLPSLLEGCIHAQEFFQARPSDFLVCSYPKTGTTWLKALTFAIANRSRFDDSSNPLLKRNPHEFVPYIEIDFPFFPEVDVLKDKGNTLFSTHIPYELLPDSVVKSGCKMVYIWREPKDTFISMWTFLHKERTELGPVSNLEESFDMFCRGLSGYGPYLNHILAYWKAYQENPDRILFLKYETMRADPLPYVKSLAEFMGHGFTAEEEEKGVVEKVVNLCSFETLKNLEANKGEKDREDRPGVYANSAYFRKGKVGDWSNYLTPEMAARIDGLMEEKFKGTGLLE

[2] = biological target: T2, AtSOT18 (Arabidopsis thaliana, UniProt Q9C9C9); experiment: sulphotransferase activity of purified enzyme, HPLC at […] nm; type: biochemical
T2 construct: gene SOT18
T2 sequence (Q9C9C9 1-350): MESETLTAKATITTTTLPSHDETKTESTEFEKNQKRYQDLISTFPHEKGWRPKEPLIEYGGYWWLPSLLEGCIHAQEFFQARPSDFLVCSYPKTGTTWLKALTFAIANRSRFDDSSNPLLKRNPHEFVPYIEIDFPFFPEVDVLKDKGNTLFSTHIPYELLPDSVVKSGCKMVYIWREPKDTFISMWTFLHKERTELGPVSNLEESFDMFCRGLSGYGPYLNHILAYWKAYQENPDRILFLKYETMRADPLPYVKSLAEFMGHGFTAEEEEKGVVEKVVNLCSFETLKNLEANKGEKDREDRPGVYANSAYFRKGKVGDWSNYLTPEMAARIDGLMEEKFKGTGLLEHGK

[3] = biological target: T2, AtSOT18; experiment: as above; type: biochemical; remark: listed apart in the source
[4] = biological target: T2, AtSOT18; experiment: as above; type: biochemical; remark: listed apart in the source
[5] = biological target: T1, AtSOT18; experiment: X-ray crystal structure ([…] Å), plus competitive inhibition kinetics against PAPS; type: biochemical
[6] = biological target: T2, AtSOT18; experiment: two-dimensional enzyme kinetic titration (HPLC), non-linear fit; type: biochemical
[7] = biological target: T2, AtSOT18; experiment: sulphotransferase activity of purified enzyme, HPLC at […] nm; type: biochemical; remark: listed apart in the source

Compound: C=CCC(=NOS(=O)(=O)O)S[C@@H]1O[C@H](CO)[C@@H](O)[C@H](O)[C@H]1O (stereo in doubt) [sinigrin]
X-ray crystal structure of ternary complex (1.92 Å) [1]: together with the product Gl sinigrin (PDB ID: 5MEX) were solved

3 MTP [2]: 1624 ± 122 pkatal mg^−1
Compound: CSCCC/C(=N/O)S[C@@H]1O[C@H](CO)[C@@H](O)[C@H](O)[C@H]1O [3MTP, ds-3MTP]

8MTO [3]: 1618 ± 272 pkatal mg^−1
Compound: CSCCCCCCCC/C(=N/O)S[C@@H]1O[C@H](CO)[C@@H](O)[C@H](O)[C@H]1O [8MTO, ds-8MTO]

I3M [4]: 501 ± 46 pkatal mg^−1
Compound: OC[C@H]1O[C@@H](S/C(Cc2c[nH]c3ccccc23)=N\O)[C@H](O)[C@@H](O)[C@@H]1O [I3M, ds-I3M]

Ki [5]: 3 ± 1.7 µM
Compound: Nc1ncnc2c1ncn2[C@@H]1O[C@H](COP(=O)(O)O)[C@@H](OP(=O)(O)O)[C@H]1O [PAP, 3′-phosphoadenosine 5′-phosphate]

Compound: Nc1ncnc2c1ncn2[C@@H]1O[C@H](COP(=O)(O)OS(=O)(=O)O)[C@@H](OP(=O)(O)O)[C@H]1O [PAPS, 3′-phosphoadenosine 5′-phosphosulphate]
Kd [6]: 4.2 ± 2.6 µM

Sinigrin [7]: 879 ± 410 pkatal mg^−1
Compound: C=CC/C(=N/O)S[C@@H]1O[C@H](CO)[C@@H](O)[C@H](O)[C@H]1O [Sinigrin (ds form), ds-Gl sinigrin]
